# Assay results: ChEMBL document CHEMBL1201862, “PubChem BioAssay data set” (2004)
# Active and inactive are the calls of the source.
# Legend:
# cells [1] = type: functional, cell-based
# cells [2] = type: functional, cell-based; remark: listed apart in the source
# Leucine aminopeptidase = target: T1, Leucine aminopeptidase (Plasmodium falciparum 3D7, UniProt Q8IL11); assay: P. falciparum M17LAP inhibitors, primary screen, biochemical, fluorogenic H-Leu-NHMec substrate, 1536-well (AID 1619); type: functional
# T1 sequence (Q8IL11 whole entry): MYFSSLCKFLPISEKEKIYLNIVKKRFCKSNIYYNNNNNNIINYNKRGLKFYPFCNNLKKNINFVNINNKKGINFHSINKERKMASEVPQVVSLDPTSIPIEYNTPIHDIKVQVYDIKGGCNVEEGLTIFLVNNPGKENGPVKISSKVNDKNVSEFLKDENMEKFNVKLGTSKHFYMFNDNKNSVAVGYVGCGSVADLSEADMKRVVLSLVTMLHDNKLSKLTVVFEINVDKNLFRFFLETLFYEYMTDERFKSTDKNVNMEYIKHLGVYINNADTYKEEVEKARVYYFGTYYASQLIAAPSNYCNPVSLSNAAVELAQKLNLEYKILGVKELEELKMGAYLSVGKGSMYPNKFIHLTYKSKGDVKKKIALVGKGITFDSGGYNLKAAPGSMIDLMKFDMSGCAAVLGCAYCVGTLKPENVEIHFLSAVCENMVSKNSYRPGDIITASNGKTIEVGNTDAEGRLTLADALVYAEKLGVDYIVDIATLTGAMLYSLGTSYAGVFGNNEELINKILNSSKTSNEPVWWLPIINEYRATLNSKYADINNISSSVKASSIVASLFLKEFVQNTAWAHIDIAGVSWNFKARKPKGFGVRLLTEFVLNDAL
# Cytochrome P450 1A2 = target: T2, Cytochrome P450 1A2 (Homo sapiens, UniProt P05177);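 also: PubChem cytochrome P450 panel assay, CYP1A2 panel member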
# T2 sequence (P05177 whole entry): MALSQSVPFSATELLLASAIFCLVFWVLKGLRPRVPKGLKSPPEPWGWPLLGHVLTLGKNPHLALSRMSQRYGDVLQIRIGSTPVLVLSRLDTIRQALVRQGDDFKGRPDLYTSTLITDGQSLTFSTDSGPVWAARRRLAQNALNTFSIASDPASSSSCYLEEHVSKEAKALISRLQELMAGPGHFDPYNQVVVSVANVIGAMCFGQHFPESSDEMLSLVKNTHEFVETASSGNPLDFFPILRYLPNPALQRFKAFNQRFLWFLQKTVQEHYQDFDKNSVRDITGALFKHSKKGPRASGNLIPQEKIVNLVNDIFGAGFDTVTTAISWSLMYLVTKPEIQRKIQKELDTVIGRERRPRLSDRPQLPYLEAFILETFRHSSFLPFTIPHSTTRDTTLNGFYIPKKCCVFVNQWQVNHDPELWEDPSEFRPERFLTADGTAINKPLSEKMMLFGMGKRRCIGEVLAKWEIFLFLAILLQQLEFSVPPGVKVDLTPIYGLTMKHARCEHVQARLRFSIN
# Cytochrome P450 2C9 = Cytochrome P450 2C9 (Homo sapiens, UniProt P11712)
# Chain of Cytochrome P450 2C9 (P11712 whole entry): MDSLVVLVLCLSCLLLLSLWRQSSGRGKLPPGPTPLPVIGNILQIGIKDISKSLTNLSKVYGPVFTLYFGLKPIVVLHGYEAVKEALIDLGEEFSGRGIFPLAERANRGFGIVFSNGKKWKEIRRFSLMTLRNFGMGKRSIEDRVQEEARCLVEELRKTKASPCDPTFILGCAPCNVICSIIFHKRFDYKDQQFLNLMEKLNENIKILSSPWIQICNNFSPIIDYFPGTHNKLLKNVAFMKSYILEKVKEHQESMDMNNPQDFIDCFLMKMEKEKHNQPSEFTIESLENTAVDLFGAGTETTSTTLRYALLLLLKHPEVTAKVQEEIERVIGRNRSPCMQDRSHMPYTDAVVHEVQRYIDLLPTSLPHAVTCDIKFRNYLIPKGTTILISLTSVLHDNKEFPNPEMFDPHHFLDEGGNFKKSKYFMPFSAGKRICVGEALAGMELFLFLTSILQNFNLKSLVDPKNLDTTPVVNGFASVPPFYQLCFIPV
# Cytochrome P450 2C19 = Cytochrome P450 2C19 (Homo sapiens, UniProt P33261); assay: Cytochrome panel assay with activity outcomes. Panel member name: p450-cyp2c19 Compounds with AC50 equal or less than 10 uM are considered active; type: functional
# Chain of Cytochrome P450 2C19 (P33261 whole entry): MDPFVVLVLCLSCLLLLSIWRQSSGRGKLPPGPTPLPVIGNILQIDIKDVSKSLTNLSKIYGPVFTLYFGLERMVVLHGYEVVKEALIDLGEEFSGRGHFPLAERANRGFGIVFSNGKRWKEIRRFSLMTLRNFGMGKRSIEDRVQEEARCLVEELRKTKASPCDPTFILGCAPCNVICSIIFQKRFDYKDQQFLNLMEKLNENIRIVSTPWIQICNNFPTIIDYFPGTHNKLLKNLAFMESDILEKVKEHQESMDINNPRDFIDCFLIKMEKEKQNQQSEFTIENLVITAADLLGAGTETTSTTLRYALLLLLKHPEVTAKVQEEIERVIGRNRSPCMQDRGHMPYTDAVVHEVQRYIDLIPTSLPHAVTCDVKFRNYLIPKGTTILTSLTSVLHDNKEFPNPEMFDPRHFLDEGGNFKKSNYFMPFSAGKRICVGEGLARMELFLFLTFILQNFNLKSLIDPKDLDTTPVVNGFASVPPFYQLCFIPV
# [3] = HEp-2 cell cytotoxicity, dose response, cytotoxicity control for RSV inhibitor project, HTS (AID 2410); type: functional; details: human respiratory syncytial virus
# Fatty acid synthase = Fatty acid synthase (Homo sapiens, UniProt P49327); assay: FAS thioesterase domain inhibitors, dose response, biochemical, kinetic fluorescence intensity (AID 624326); type: functional;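 also: rate of fluorescence rise from hydrolysis of a fluorogenic O-methyl fluorescein ester substrate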
# Streptococcus = assay: Group A Streptococcus viability loss, dose response, counter-screen for streptokinase expression inhibitor project, luminescence, BacTiterGlo (AID 1915); type: functional, organism-based;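 also: potency for reduction of bacterial viability or growth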
# [4] = system: Streptococcus sp. 'group A'; assay: growth inhibition of control SK(-) GAS strain, dose response, counter-screen for streptokinase expression inhibitor project, luminescence, kanamycin, BacTiterGlo, confirmation (AID 1900); type: functional, organism-based
# [5] = Luminescence Cell-Based Dose Confirmation HTS to Identify Inhibitors of Platelet Dense Granule Release. [Related pubchem assays: 1663 (Primary HTS), 1678 (Summary of Project)]; type: functional
# [6] = target: Luciferin 4-monooxygenase (Photinus pyralis, UniProt P08659); assay: firefly luciferase enzyme inhibitors, dose response, biochemical, luminescence (AID 1891)
# Chain of Luciferin 4-monooxygenase (P08659 whole entry): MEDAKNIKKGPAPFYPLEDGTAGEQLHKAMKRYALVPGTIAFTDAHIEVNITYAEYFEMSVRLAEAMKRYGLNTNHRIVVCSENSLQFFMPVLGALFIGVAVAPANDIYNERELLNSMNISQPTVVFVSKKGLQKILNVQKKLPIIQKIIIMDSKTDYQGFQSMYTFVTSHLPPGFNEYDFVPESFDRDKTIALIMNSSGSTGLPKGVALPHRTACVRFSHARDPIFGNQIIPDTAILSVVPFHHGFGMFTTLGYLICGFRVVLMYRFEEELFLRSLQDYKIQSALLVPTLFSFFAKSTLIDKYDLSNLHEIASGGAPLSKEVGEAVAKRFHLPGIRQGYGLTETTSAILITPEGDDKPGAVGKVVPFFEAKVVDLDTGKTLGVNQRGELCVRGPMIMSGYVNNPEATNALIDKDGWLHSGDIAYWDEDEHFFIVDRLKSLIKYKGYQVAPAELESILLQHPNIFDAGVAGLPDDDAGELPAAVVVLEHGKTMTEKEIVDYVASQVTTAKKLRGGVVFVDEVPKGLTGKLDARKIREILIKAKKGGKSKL
# Streptokinase A = target: T3, Streptokinase A (Streptococcus pyogenes serotype M1, UniProt P10520); assay: S. pyogenes streptokinase expression inhibitors, potency, dose response, plasminogen activation absorbance, OD405 (AID 1914); type: functional, Streptococcus pyogenes M1 GAS;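 also: secreted streptokinase activity via plasminogen activation per viability signal from cell pellet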
# T3 sequence (P10520 whole entry): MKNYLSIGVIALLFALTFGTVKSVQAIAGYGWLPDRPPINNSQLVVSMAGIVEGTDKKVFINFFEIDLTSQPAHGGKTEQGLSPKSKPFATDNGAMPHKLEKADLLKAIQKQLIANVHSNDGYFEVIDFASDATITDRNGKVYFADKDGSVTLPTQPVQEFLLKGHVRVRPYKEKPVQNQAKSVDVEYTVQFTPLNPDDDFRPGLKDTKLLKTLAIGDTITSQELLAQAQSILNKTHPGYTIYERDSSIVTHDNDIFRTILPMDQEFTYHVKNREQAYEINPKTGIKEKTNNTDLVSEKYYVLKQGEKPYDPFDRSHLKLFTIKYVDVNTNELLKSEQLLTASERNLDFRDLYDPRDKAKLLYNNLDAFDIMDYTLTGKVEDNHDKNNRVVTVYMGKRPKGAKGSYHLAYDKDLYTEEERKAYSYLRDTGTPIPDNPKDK
# [7] = Luminescence Cell-Based Dose Response HTS to Identify Activators of Luciferase Translation or Activity in H4 […] Cells. [Related pubchem assays: 1829 (Project Summary), 1814 (Primary HTS)]; type: functional
# H4 = assay: Luminescence Cell-Based Dose Response HTS to Identify Activators of 5'UTR Stem-Loop Driven Prion Protein mRNA Translation in H4 Neuroglioblastoma Cells. [Related pubchem assays: 1829 (Project Summary), 1814 (Primary HTS)]; type: functional; details: Homo sapiens
# [8] = Luminescence Cell-Based Dose Confirmation HTS to Identify Activators of 5'UTR Stem-Loop Driven Alpha-Synuclein mRNA Translation in H4 Neuroglioblastoma Cells. [Related pubchem assays: 1829 (Project Summary), 1814 (Primary HTS)]; type: functional
# Cytochrome P450 3A4 = Cytochrome P450 3A4 (Homo sapiens, UniProt P08684);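 also: CYP3A4 tested as one member of a cytochrome P450 panel screen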
# Chain of Cytochrome P450 3A4 (P08684 whole entry): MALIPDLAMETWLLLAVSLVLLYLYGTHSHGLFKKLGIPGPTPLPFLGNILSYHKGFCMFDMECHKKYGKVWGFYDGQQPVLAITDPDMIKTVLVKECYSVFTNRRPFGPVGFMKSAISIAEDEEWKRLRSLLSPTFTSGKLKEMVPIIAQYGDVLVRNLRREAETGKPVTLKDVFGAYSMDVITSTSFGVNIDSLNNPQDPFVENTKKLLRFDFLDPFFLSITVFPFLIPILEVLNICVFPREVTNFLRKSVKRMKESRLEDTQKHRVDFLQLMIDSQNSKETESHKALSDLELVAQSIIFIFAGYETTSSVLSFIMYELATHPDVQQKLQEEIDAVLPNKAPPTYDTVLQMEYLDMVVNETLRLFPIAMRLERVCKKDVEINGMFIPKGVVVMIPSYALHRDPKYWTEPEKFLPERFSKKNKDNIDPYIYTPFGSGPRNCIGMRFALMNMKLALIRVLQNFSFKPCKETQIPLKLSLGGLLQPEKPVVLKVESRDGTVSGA
# [9] = target: Glyceraldehyde-3-phosphate dehydrogenase (Homo sapiens, UniProt P04406)
# Chain of Glyceraldehyde-3-phosphate dehydrogenase (P04406 whole entry): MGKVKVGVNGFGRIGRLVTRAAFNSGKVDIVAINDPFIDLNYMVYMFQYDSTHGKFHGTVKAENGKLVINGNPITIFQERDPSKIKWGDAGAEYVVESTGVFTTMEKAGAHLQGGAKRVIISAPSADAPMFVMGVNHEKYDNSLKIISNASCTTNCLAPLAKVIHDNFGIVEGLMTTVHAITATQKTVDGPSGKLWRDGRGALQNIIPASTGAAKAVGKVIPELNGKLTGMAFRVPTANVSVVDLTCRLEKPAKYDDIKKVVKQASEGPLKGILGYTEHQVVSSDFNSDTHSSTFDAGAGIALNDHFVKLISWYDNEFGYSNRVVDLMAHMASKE
# [10] = control 3'UTR Renilla luciferase suppression, dose response, counter-screen for Shn3 inhibitor project, cell-based, Clone20-Shn3RL, cherry-picked (AID 624133); type: functional
# [11] = Shn3 3'UTR reporter inhibitors, dose response, cell-based, Clone20 osteoblasts, firefly luciferase, cherry-picked (AID 624132); type: functional;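 also: firefly luciferase luminescence from reporter carrying the Shn3 3'UTR in osteoblasts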
# Paired box protein Pax-8 = Paired box protein Pax-8 (Homo sapiens, UniProt Q06710); assay: inhibitors of PAX8-driven TPO luciferase reporter, dose response, RMG-I cells, cherry-pick (AID 687027); type: functional, cell-based;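 also: luciferase reporter driven by Pax8 target thyroperoxidase promoter measured by SteadyGlo luminescence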
# Chain of Paired box protein Pax-8 (Q06710 whole entry): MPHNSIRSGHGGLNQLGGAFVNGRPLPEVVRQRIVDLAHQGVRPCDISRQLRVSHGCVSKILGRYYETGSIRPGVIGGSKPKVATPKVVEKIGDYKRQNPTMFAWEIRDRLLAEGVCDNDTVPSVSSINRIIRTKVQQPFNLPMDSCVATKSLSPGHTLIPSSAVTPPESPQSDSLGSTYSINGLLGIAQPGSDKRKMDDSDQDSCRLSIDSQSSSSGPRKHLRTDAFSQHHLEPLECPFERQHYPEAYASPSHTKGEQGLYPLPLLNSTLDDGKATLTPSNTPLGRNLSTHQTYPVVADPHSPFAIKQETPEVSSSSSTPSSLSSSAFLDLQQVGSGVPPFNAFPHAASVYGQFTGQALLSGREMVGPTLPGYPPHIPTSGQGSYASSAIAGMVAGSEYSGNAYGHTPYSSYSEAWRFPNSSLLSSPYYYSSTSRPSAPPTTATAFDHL
# INS1 = assay: beta cell apoptosis inhibitors, cytokine rescue, dose response, luminescence, retest (AID 449756); type: functional, cell-based; details: Rattus norvegicus;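 also: cell death triggered by IL-1 beta plus TNF-alpha plus IFN-gamma mixture; protective hits raise ATP signal compared with cytokine alone wells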
# [12] = Luminescence Cell-Based Dose Retest to Confirm Inhibitors of Cancer Stem Cells. [Related pubchem assays (depositor defined):AID2717, AID2721]; type: functional; details: Homo sapiens
smiles,measurement,setting,value
S=C(Nc1ccc2c[nH]nc2c1)Nc1ccccc1Cl,EC50,cells [1],> 350 µM (not active)
same,EC50,cells [2],> 350 µM (not active)
COc1ccc(C2CC(=O)c3sc(N)nc3C2)cc1 (stereo not given),IC50,Leucine aminopeptidase,30.1 µM (active)
CC(OC(=O)Cn1c(C(F)(F)F)nc2ccccc21)C(N)=O (stereo not given),AC50,Cytochrome P450 1A2,25.1 µM (inconclusive)
same,AC50,Cytochrome P450 2C9,0.631 µM (inconclusive)
same,AC50,Cytochrome P450 2C19; read-out: AC50,28.2 µM (inconclusive)
CN(CC(=O)Nc1ccc(Cl)c(C(F)(F)F)c1)C(=O)CCCNC(=O)c1ccc(Cl)cc1,CC50,[3],2.49 µM (active)
O=C(O)c1ccccc1Nc1ccc([N+](=O)[O-])cc1C(=O)O,EC50,cells [1],> 350 µM (not active)
same,EC50,cells [2],> 350 µM (not active)
CC(C)(C)c1nc2scc(-c3cccs3)c2c(=O)o1,IC50,Fatty acid synthase,3.42 µM (active)
CCOc1ccc(-c2nc3n(c(=O)c2C#N)CCCS3)cc1,EC50,Streptococcus,148 µM (active)
same,EC50,[4],11.9 µM (active)
same,EC50,[5],> 112 µM (not active)
same,EC50,[6],> 112 µM (not active)
same,EC50,Streptokinase A,> 150 µM (not active)
S=C(c1ccc(-c2cc(Cl)ccc2Cl)o1)N1CCCCC1,CC50,[3],> 50 µM (active)
COC(=O)c1ccc(C2C(C(=O)c3ccc4c(c3)CC(C)O4)=C(O)C(=O)N2Cc2ccncc2)cc1 (stereo not given),EC50,[5],> 112 µM (not active)
same,EC50,[6],> 112 µM (not active)
Cc1ccc(NC(=O)c2nnn(-c3ccc4c(c3)OCCO4)c2N)cc1,CC50,[3],> 50 µM (active)
CCCNC(=O)c1cc2nc(-c3ccccc3)cc(C(F)(F)F)n2n1,EC50,cells [1],> 350 µM (not active)
same,EC50,cells [2],> 350 µM (not active)
Cc1ccc(NC(=O)CNc2cc(S(=O)(=O)N3CCOCC3)ccc2NCC2CCCO2)cc1F (stereo not given),EC50,[5],> 112 µM (not active)
same,EC50,[6],> 112 µM (not active)
CC(C)CN(CCNC(=O)c1cn(C)c2ccc(S(=O)(=O)N3CCCC3)cc2c1=O)CC(C)C,EC50,cells [1],> 350 µM (not active)
same,EC50,cells [2],> 350 µM (not active)
CCC(c1nnnn1Cc1ccccc1)N(Cc1ccco1)Cc1cc2cc(OC)ccc2nc1O (stereo not given),EC50,[5],> 112 µM (not active)
same,EC50,[6],> 112 µM (not active)
COc1ccc(CCn2ccc(O)c(Cc3ccc(Cl)cc3)c2=O)cc1OC,CC50,[3],20 µM (active)
COc1ccc(-c2csc(NC(=O)c3cc(C)oc3C)n2)cc1OC,CC50,[3],26.6 µM (active)
NC(=O)c1nsc(C(=O)N(CC(=O)NC2CCCC2)c2cnc3ccccc3c2)c1N,EC50,[5],17.1 µM (active)
same,EC50,[6],> 112 µM (not active)
Cc1ccc(NC(=O)NC2=NN(c3ccccc3)C(=O)/C2=C2/CCCN2C)cc1,EC50,[7],18.1 µM (active)
same,EC50,H4,14.4 µM (active)
same,EC50,[8],32.5 µM (active)
Cc1ccccc1-c1cc(C(=O)n2cccn2)c2cc(Cl)ccc2n1,AC50,Cytochrome P450 1A2,17.8 µM (inconclusive)
same,AC50,Cytochrome P450 2C19; read-out: AC50,7.08 µM (inconclusive)
Cc1cc(NS(=O)(=O)c2ccc(NC(=O)Nc3ccc4c(c3)OCO4)cc2)no1,IC50,Leucine aminopeptidase,13.3 µM (active)
OC(COc1ccc2ccccc2c1Cl)CN1CCOCC1 (stereo not given),EC50,[7],6.79 µM (active)
same,EC50,H4,9.81 µM (active)
same,EC50,[8],4.79 µM (active)
Cn1ccnc1Sc1nc2ccccc2nc1NS(=O)(=O)c1ccccc1,IC50,Leucine aminopeptidase,29.2 µM (active)
COc1ccc(NC(=O)CNC(=O)c2ccc([N+](=O)[O-])cc2)cc1,EC50,[5],15.4 µM (active)
same,EC50,[6],> 112 µM (not active)
Cc1ccc(NC(=O)c2cc(S(=O)(=O)N3CCOCC3)cn2C)cc1F,EC50,[5],> 112 µM (not active)
same,EC50,[6],> 112 µM (not active)
CCC(Sc1nc(C)cc(O)n1)C(=O)Nc1sc2c(c1C#N)CCCC2 (stereo not given),EC50,cells [1],> 350 µM (not active)
same,EC50,cells [2],> 350 µM (not active)
CCCCC[C@H](CC(=O)NO)C(=O)N[C@@H](C(=O)N1CCC[C@H]1CO)C(C)C,AC50,Cytochrome P450 3A4,5.01 µM (inconclusive)
same,AC50,Cytochrome P450 2C19,inconclusive
COc1ccc(Cl)cc1S(=O)(=O)Nc1cnc2ccccc2c1,IC50,[9],> 10 µM (inconclusive)
CCOC(=O)c1sc(NC(=O)CSc2nnc[nH]2)c(C#N)c1C,IC50,Leucine aminopeptidase,73 µM (active)
COC(=O)C1=C(c2ccc3ccccc3c2)C[C@@H]2CC[C@H]1N2C(=O)NCC1CC1,AC50,[10],30.6 µM (active)
same,AC50,[11],6.86 µM (active)
CCOc1ccc2c(C)c(Cl)c(=O)oc2c1,EC50,cells [1],> 350 µM (not active)
same,EC50,cells [2],> 350 µM (not active)
Cc1ccc2c(c1)C(O)(CC(=O)/C=C/C=C/c1ccccc1)C(=O)N2 (stereo not given),EC50,[7],11.8 µM (active)
same,EC50,H4,> 120 µM (not active)
same,EC50,[8],17 µM (active)
C[C@@H]1CCCCO[C@@H](CN(C)C(=O)C2CCCCC2)[C@H](C)CN([C@@H](C)CO)C(=O)c2cc(NS(=O)(=O)c3ccc(Cl)cc3)ccc2O1,AC50,Paired box protein Pax-8,9.05 µM (active)
C[C@@H]1CN([C@@H](C)CO)C(=O)Cc2cc(NC(=O)Nc3ccc(C(F)(F)F)cc3)ccc2O[C@H]1CN(C)S(=O)(=O)c1ccc(F)cc1,AC50,Paired box protein Pax-8,9.39 µM (active)
CCN1C[C@]2(C)CC[C@H](OC)[C@@]34[C@@H]2[C@H](OC(C)=O)C2(OCO[C@@]25C[C@@H](OC)[C@H]2C[C@@]3(O)[C@H]5[C@@H]2OC)[C@H]14,AC50,Cytochrome P450 3A4,15.8 µM (inconclusive)
same,AC50,Cytochrome P450 2C19,inconclusive
Cc1cc(O)nc(N/N=C/c2ccccn2)n1,AC50,INS1,1.37 µM (active)
same,EC50,cells [1],40.4 µM (active)
same,EC50,cells [2],33.1 µM (active)
same,AC50,[12],2.89 µM (active)
O=C(O)c1cc(N/N=C/c2ccc(OCc3ccccc3)cc2)ccc1Cl,IC50,Leucine aminopeptidase,20 µM (active)
CC1=NNC(=O)C1CC(=O)N/N=C(\C)c1ccco1 (stereo not given),IC50,Leucine aminopeptidase,12.3 µM (active)
Cc1ccc(C)n1-c1ccc(S(N)(=O)=O)cc1,IC50,[9],> 100 µM (not active)
O=C(NCCCO)c1cc(-c2cc(F)c(Cl)cc2Cl)n[nH]1,IC50,[9],> 10 µM (inconclusive)
